Measurements published in US7732420B2, “Combinations of transfection lipids exhibiting increased transfection efficiencies” (Northwestern University, priority 2003, dated 2010).

Columns and labels:
[1] = test system: human umbilical artery endothelial cells (HUAECs); experiment: Transfection of HUAEC with lipoplexes, β-galactosidase expression; assay type: cell-based; conditions: lipid used individually
Experimental: The cells were seeded in 96-well plates at 24 hours before transfection at densities to give about 80% confluence at the time of transfection. Chloroform solutions of EDLPC with EDOPC and EDLPC with EDMPC were mixed at the different ratios and then chloroform was removed under N2 stream and vacuum. The lipid mixtures were hydrated in HBSS at 1 mg/ml to form liposomes. Liposomes and plasmid DNA were diluted in OptiMEM to 80 μg/ml for lipid and to 20 μg/ml for DNA, and liposomes were pipetted into an equal volume of plasmid DNA solution at a 4:1 weight ratio and mixed gently. The resultant DNA (plasmid with β-galactosidase marker gene)—lipid complexes were incubated at room temperature for 15 min and then added to the cells that were either in medium lacking serum (black bars) or medium containing 5% serum (gray bars). The lipoplexes had 35% (lipoid) excess positive over negative (DNA) charge. Cells were assayed for β-galactosidase expression 24 hours after transfection. Data represent the mean±S.D. of a representative experiment performed in quadruplicate. ˜20,000 fluorescence units corresponded approximately to 0.1 milliunit of β-galactosidase.
Cells were treated with DNA-lipid complex for 2 h in the absence (“no serum”) or presence of serum (“serum”) and then washed with HBSS and supplemented with fresh culture medium. Data represent the mean±S.D. of a representative experiment performed in quadruplicate.
Cells were treated with DNA-lipid complex for 2 h in the absence (“no serum”) or presence of 5% normal serum (“normal serum”) or 5% delipidated serum (“delipidated serum”) and then washed with HBSS and supplemented with fresh regular culture medium. Data represent the mean±S.D. of a representative experiment performed in quadruplicate.
Conditions were identical with those described in FIG. 1 except that different lipoid mixtures were used. Ditetradecyldimethyammonium (di C 14 substituted quaternary ammonium) was mixed with dioctadecylammonium (di C 18 quaternary ammonium).

HUAECs = experiment: Intracellular distribution of fluorescent lipid and oligonucleotide of lipoplexes; assay type: cell-based, human
Experimental: Lipoplexes were labeled with a fluoresce in derivative of a double-stranded dodecameric oligonucleotide. Cells were incubated with the resulting lipoplexes in the presence of serum for 2 h and imaged under a fluorescence microscope at 2 h later after being washed with HBSS.
In order to determine if this pattern of fusion is also observed within cells (e.g., the mixture is more prone to fuse with endosomal membranes facilitating escape of DNA from endosomal degradation and nuclei entrance) the intracellular distribution of fluorescent lipid and oligonucleotide in EDOPC and EDLPC/EDOPC (60/40) lipoplexes was investigated. […] Lipoplexes were labeled with a fluorescein derivative of a double-stranded dodecameric oligonucleotide. Cells were incubated with the resulting lipoplexes in the presence of serum for 2 h and imaged under a fluorescence microscope after being washed in HBSS. […] Similar images were obtained with fluorescent plasmid DNA, although the fluorescence of the nucleus was less intense.

SMILES	transfection activity of the individual lipid [1]	intracellular distribution of lipid (HUAECs; fluorescent lipid in lipoplexes)	intracellular distribution of oligonucleotide (HUAECs; fluorescent oligonucleotide in lipoplexes, in the presence of serum)
CCCCCCCCCCCC(=O)OC[C@H](COP(=O)(OCC)OCC[N+](C)(C)C)OC(=O)CCCCCCCCCCC (some centres unmarked) [EDLPC, 1,2-dilauroyl-sn-glycero-3-ethylphosphocholine]	quite weak transfection reagents		
CCCCCCCCCCCCCC(=O)OC[C@H](COP(=O)(OCC)OCC[N+](C)(C)C)OC(=O)CCCCCCCCCCCCC (some centres unmarked) [EDMPC, 1,2-dimyristol-sn-glycero-3-ethylphosphocholine]	quite weak transfection reagents		
CCCCCCCC/C=C\CCCCCCCC(=O)OC[C@@H](COP(=O)(OCC)OCC[N+](C)(C)C)OC(=O)CCCCCCC/C=C\CCCCCCCC (some centres unmarked) [EDOPC, 1,2-dioleoyl-sn-glycero-3-ethylphosphocholine]	quite weak transfection reagents	remained in the cytoplasm for at least 20 hours	remained in the cytoplasm for at least 20 hours
